Where two headings read alike, the source gives them in different places. Marks after values point to notes of the source that are not given here.
Experiments:
[1] = flower buds 2006; for Fosetyl-Al residue: 10 days
Source text: In 2006, the magnitude of the levels of fosetyl-Al and phosphorous acid residues in the developing flower buds was monitored on three plots: in the control untreated plot, in the plot treated with fosetyl-Al based on 3×3.75 kg/ha (application on 18/05, 30/05 and 08/06) and in the plot treated with fosetyl-Al based on 6×2.0 kg/ha (application on 18/05, 30/05, 08/06, 19/06, 29/06 and 10/07).
On each date (with the exception of the first sampling date), 40 flower buds with their surrounding leaves were gathered. On the first sampling date, 40 flower buds were gathered without leaves.
The flower bud samples were taken before the next treatment on the following dates: 30/05, 08/06, 19/06, 28/06, 10/07 and 28/08. For the two fosetyl-Al and phosphorous acid products, the levels of residues in the flower buds were determined with the aid of an LC-MS-MS analytical method. The limit of quantification (LOQ) was 0.1 mg/kg for fosetyl-Al, 2 mg/kg for phosphorous acid and 3 mg/kg for the total residue expressed as fosetyl-Al equivalent. The total residue is the sum of the residues derived from fosetyl-Al and phosphorous acid expressed as fosetyl-Al equivalent.
The results are calculated according to the following formula:
[formula] in which: • Mfosetyl-Al represents the molecular weight of fosetyl-Al: 354.1 g/mol • Mphosphorous acid represents the molecular mass of phosphorous acid: 82 g/mol; multiplied by 3, since 1 mol of fosetyl-Al corresponds to 3 mol of phosphorous acid.
For the pear bud samples, the fosetyl-Al and phosphorous acid residues are extracted with the aid of an acetonitrile/water (50:50, v/v) mixture. After centrifugation and dilution of the sampling material, the residues are quantified by HPLC and detected by tandem mass spectrometry with electrospray ionization. The quantification is performed by external standardization. The statistical analysis is performed per parameter on the complete set of data for the different sampling dates.

[2] = test system: flower bud dieback on pear trees (Conference variety); experiment: Flower bud quality field trial against flower bud dieback on young pear trees; type: in vivo, pear trees (Conference cultivar); settings: for Good quality buds (%) 1 yw S: 1-year old wood side position; for Good quality buds (%) 1 yw S / Good quality buds (%) 1 yw T / Good quality buds (%) 2 yw / Good quality buds (%) Per tree: treated 2004 and 2005, 2006 flower buds; for Good quality buds (%) 1 yw T: 1-year old wood terminal position; for Good quality buds (%) 2 yw: 2-year old wood
Method: (§1) During three consecutive years 2004, 2005 and 2006, a trial was carried out on young pear trees of the Conference cultivar on a Quince Adams stock. The pear trees of this orchard were planted in 1999 according to the system of a single row at a planting distance of 3.5 m between the rows and 1.5 m in the row with a tree height of 3 m.
(§2) During the 2004 trial, three products were compared in an arbitrary block design with 10 trees per plot in four repeats: the observations were made on the 8 trees inside the plot. […] The applications were in the post-flower period at an interval of 10 days.
(§3) In 2005, the same applications were repeated on the same trees.
In 2006, the complete trial was repeated on new trees in the same orchard. The fosetyl-Al doses varying between 2 and 3.75 kg/ha of standard orchard (corresponding to doses varying from 1.33 to 2.50 kg/ha of foliar surface area) were applied in the post-flower period during the months of May and June at an interval of 5 or 10 days between the treatments. Benzothiadiazole applied at a dose of 200 g/ha of standard orchard (corresponding to a dose of 133 g/ha of foliar surface area) was included as reference product in order to induce plant defense reactions by the trees.
(§4) After one year during flowering, the effect of the treatments on the quality of the flower bud was evaluated. Statistical analysis of the various parameters is performed (Unistat Statistical Package, Version 5.5). The original or processed data are analyzed according to the General Linear Model and the treatment means are separated in a standard manner using the Duncan multiple classification test (5% level).

[3] = test system: pear trees (Conference cultivar); experiment: Productivity of the pear trees after the treatments (field trial); type: in vivo; settings: 2006, treated 2004 and 2005
Method: as §1, §2, §3, §4

[4] = test system: pear trees (Conference cultivar); settings: plot treated at 3.75 kg/ha, 2004 treatments
Source text: as §2, §3

[5] = 3 x 3.75 kg/ha May interval 10 + 3 x 3.75 kg/ha June interval 14
[6] = 3 x 3.75 kg/ha May, interval 10
[7] = 3 x 3.75 kg/ha May, primary efflorescence
[8] = treated 2004, 2005 flower buds, 3 x 3.75 kg/ha May interval 10 + 1 x 3.75 kg/ha AH
[9] = treated 2004, 2005 flower buds, 3 x 3.75 kg/ha May interval 10 + 3 x 3.75 kg/ha June interval 14
[10] = treated 2004, 2005 flower buds, 3 x 3.75 kg/ha May, interval 10
[11] = treated 2006, 2007 flower buds, 3 x 3.75 kg/ha June, interval 10
[12] = treated 2006, 2007 flower buds, 3 x 3.75 kg/ha May, interval 10
[13] = treated 2006, 2007 flower buds, 6 x 2 kg/ha June, interval 5
[14] = treated 2006, 2007 flower buds, 6 x 2 kg/ha May, interval 5
[15] = treated 2006, 2007 flower buds, 6 x 2 kg/ha May-June, interval 10
[16] = 3 x 3.75 kg/ha May interval 10 + 3 x 3.75 kg/ha June interval 14, object excluded from statistical analysis
[17] = treated 2004, 2005 flower buds, 3 x dose 3 (kg/ha) May, interval 10
[18] = treated 2004, 2005 flower buds, 3 x dose 11.25 (kg/ha) May, interval 10
[19] = 3 x 0.2 kg/ha May interval 10 + 3 x 0.2 kg/ha June interval 14
[20] = treated 2004, 2005 flower buds, 3 x 0.2 kg/ha May interval 10 + 3 x 0.2 kg/ha June interval 14
[21] = treated 2006, 2007 flower buds, 3 x 0.2 kg/ha May, interval 10

CCO[PH](=O)O.[Al] [Fosetyl-Al, aluminum ethyl hydrogen phosphonate]
time the level of fosetyl-Al residue was maintained after the last treatment ([1]; dose of 3.75 kg/ha): approximately 4 weeks
Fosetyl-Al residue ([1]; fosetyl-Al 3 x 3.75 kg/ha May, sampling 08/06): 12.92 mg/kg
Fosetyl-Al residue ([1]; fosetyl-Al 3 x 3.75 kg/ha May, sampling 10/07): 2.14 mg/kg
Fosetyl-Al residue ([1]; fosetyl-Al 3 x 3.75 kg/ha May, sampling 19/06): 10.65 mg/kg
Fosetyl-Al residue ([1]; fosetyl-Al 3 x 3.75 kg/ha May, sampling 28/06): 10.83 mg/kg
Fosetyl-Al residue ([1]; fosetyl-Al 3 x 3.75 kg/ha May, sampling 28/08): 0.11 mg/kg
Fosetyl-Al residue ([1]; fosetyl-Al 3 x 3.75 kg/ha May, sampling 30/05): 0.1 mg/kg
Fosetyl-Al residue ([1]; fosetyl-Al 6 x 2 kg/ha May-June, sampling 08/06): 10.64 mg/kg
Fosetyl-Al residue ([1]; fosetyl-Al 6 x 2 kg/ha May-June, sampling 10/07): 2.86 mg/kg
Fosetyl-Al residue ([1]; fosetyl-Al 6 x 2 kg/ha May-June, sampling 19/06): 4.52 mg/kg
Fosetyl-Al residue ([1]; fosetyl-Al 6 x 2 kg/ha May-June, sampling 28/06): 20.56 mg/kg
Fosetyl-Al residue ([1]; fosetyl-Al 6 x 2 kg/ha May-June, sampling 28/08): 0.18 mg/kg
Fosetyl-Al residue ([1]; fosetyl-Al 6 x 2 kg/ha May-June, sampling 30/05): 0.1 mg/kg
Good quality buds (%) 1 yw S [2, 5]: 68.4%
Good quality buds (%) 1 yw S [2, 6]: 56.5%
Good quality buds (%) 1 yw S [2, 7]: 69.8%
Good quality buds (%) 1 yw T [2, 5]: 97.2%
Good quality buds (%) 1 yw T [2, 6]: 82.7%
Good quality buds (%) 1 yw T [2, 7]: 90.2%
Good quality buds (%) 2 yw [2, 5]: 86.1%
Good quality buds (%) 2 yw [2, 6]: 75.1%
Good quality buds (%) 2 yw [2, 7]: 68.2%
flower bud quality with an additional treatment after harvesting versus post-flower treatments alone ([2]; 2004 treatments, 2005 buds): results comparable
Buds of good quality [2, 8]: 88.3%
Number of incomplete buds/tree [2, 8]: 9.2 buds/tree
Buds of good quality [2, 9]: 89.3%
Number of incomplete buds/tree [2, 9]: 7.9 buds/tree
Buds of good quality [2, 10]: 88.4%
Number of incomplete buds/tree [2, 10]: 7.9 buds/tree
Good quality buds (%) Per tree [2, 5]: 92.3%
Good quality buds (%) Per tree ([2]; 3 x 3.75 kg/ha May interval 10 + 3 x 3.75 kg/ha June interval 14, listed as fosetyl-Al): 92%
Good quality buds (%) Per tree [2, 6]: 85.9%
Good quality buds (%) Per tree ([2]; 3 x 3.75 kg/ha May, interval 10, listed as fosetyl-Al): 86%
Good quality buds (%) Per tree [2, 7]: 75.4%
Good quality buds (%) Per tree ([2]; 3 x 3.75 kg/ha May, primary efflorescence, listed as fosetyl-Al): 75%
percentages of flower buds that have died back or that are incomplete ([2]; treated 2006, 2007 buds, all objects treated with fosetyl-Al): significantly reduced
Buds that have died back (%) [2, 11]: 31.6%
Good quality buds (%) [2, 11]: 62.5%
Number of incomplete buds/tree [2, 11]: 5.9 buds/tree
Buds that have died back (%) [2, 12]: 33.4%
Good quality buds (%) [2, 12]: 59.3%
Number of incomplete buds/tree [2, 12]: 7.2 buds/tree
Good quality buds (%) ([2]; treated 2006, 2007 flower buds, 3 x 3.75 kg/ha May, interval 10, listed as fosetyl-Al): 59%
Buds that have died back (%) [2, 13]: 31.5%
Good quality buds (%) [2, 13]: 63.5%
Number of incomplete buds/tree [2, 13]: 5 buds/tree
Buds that have died back (%) [2, 14]: 33%
Good quality buds (%) [2, 14]: 59.6%
Number of incomplete buds/tree [2, 14]: 7.4 buds/tree
Good quality buds (%) ([2]; treated 2006, 2007 flower buds, 6 x 2 kg/ha May, interval 5, listed as fosetyl-Al): 59%
Buds that have died back (%) [2, 15]: 33.9%
Good quality buds (%) [2, 15]: 61.2%
Number of incomplete buds/tree [2, 15]: 4.9 buds/tree
Average weight (g) [3, 16]: 137.9* g
Number of fruits/tree [3, 16]: 152.2* fruits/tree
Productivity (kg/tree) [3, 16]: 21* kg/tree
Average weight [3, 6]: 144.8 g
Number of fruits/tree [3, 6]: 148.8 fruits/tree
Productivity (kg/tree) [3, 6]: 21.5 kg/tree
Average weight [3, 7]: 157.7 g
Number of fruits/tree [3, 7]: 140.4 fruits/tree
Productivity (kg/tree) [3, 7]: 22.1 kg/tree
phytotoxicity [4]: absence of phytotoxicity

potassium phosphonate
Buds of good quality [2, 17]: 89.5%
Number of incomplete buds/tree [2, 17]: 7.2 buds/tree
Buds of good quality [2, 18]: 92.4%
Number of incomplete buds/tree [2, 18]: 4.8 buds/tree

c1ccc2snnc2c1 [Benzothiadiazole, benzothiadiazole]
Good quality buds (%) 1 yw S [2, 19]: 56.6%
Good quality buds (%) 1 yw T [2, 19]: 54.6%
Good quality buds (%) 2 yw [2, 19]: 58.5%
activity on flower bud quality ([2]; 2004 treatments, 2005 buds, reference product): insufficient activity
Buds of good quality [2, 20]: 71.2%
Number of incomplete buds/tree [2, 20]: 22.5 buds/tree
Good quality buds (%) Per tree [2, 19]: 62.8%
Buds that have died back (%) [2, 21]: 43.5%
Good quality buds (%) [2, 21]: 44.2%
Number of incomplete buds/tree [2, 21]: 12.3 buds/tree
Average weight [3, 19]: 163.2 g
Number of fruits/tree [3, 19]: 113.88 fruits/tree
Productivity (kg/tree) [3, 19]: 18.5 kg/tree

Source: patent US8404279B2, “Method for improving the bud quality of a plant” (Bayer CropScience AG, priority 2007, dated 2013)
